One assay concerns C. krusei. In words: MIC by CLSI M27/M38 methodology. In kind it is cell-based. The conditions noted are these: C. krusei isolate ATCC 6258; Table 8.
Another assay relates to P. variotii. In words: MIC by CLSI M27/M38 methodology. In kind it is cell-based. The following applies: P. variotii isolate MYA-363; Table 8.

Converted amounts (≈) assume the structure as drawn. Square brackets hold non-standard residues; d marks the D form. Peptide text beside a SMILES is read from it. Dab = NCC[C@H](N)C(=O)O

As to `CC[C@H](C)[C@H](NC(=O)[C@H](CCCNC(=N)N)NC(=O)[C@@H](NC(=O)[C@H](CS)NC(=O)[C@H](Cc1ccccc1)NC(=O)[C@H](CS)NC(=O)[C@H](CCCNC(=N)N)NC(=O)[C@H](CCCNC(=N)N)NC(=O)[C@H](CCCNC(=N)N)NC(=O)[C@H](Cc1ccccc1)NC(=O)CNC(=O)[C@H](CCCNC(=N)N)NC(=O)[C@H](CS)NC(=O)[C@H](CCCNC(=N)N)NC(=O)CNC(=O)CN)[C@@H](C)O)C(=O)N[C@@H](CS)C(N)=O` [GMA4C_V2A] (H-GGRCRGFRRRCFCTRIC-NH2; N-terminus assumed), the figures for the “MIC, 100%” value in the assay with C. krusei and against P. variotii were 16 µg/mL (≈ 7.82 µM) and 8 µg/mL (≈ 3.91 µM), respectively.
Consider `N=C(N)NCCC[C@H](NC(=O)CNC(=O)[C@@H](N)Cc1ccccc1)C(=O)N[C@@H](CS)C(=O)N[C@@H](CCCNC(=N)N)C(=O)NCC(=O)N[C@@H](Cc1ccccc1)C(=O)N[C@@H](CCCNC(=N)N)C(=O)N[C@@H](CCCNC(=N)N)C(=O)N[C@@H](CCCNC(=N)N)C(=O)N[C@@H](CS)C(=O)N[C@@H](Cc1ccccc1)C(=O)N[C@@H](CS)C(=O)N[C@@H](Cc1c[nH]c2ccccc12)C(=O)N[C@@H](CCCNC(=N)N)C(=O)N[C@@H](Cc1c[nH]c2ccccc12)C(=O)N[C@@H](CS)C(N)=O` [GMA4C_V4A] (H-FGRCRGFRRRCFCWRWC-NH2; N-terminus assumed), for which the “MIC, 100%” value in the assay with C. krusei and in the assay on P. variotii was 8 µg/mL (≈ 3.49 µM) throughout.
On to `NCC[C@H](NC(=O)CNC(=O)[C@@H](N)Cc1ccccc1)C(=O)N[C@@H](CS)C(=O)N[C@@H](CCN)C(=O)NCC(=O)N[C@@H](Cc1ccccc1)C(=O)N[C@@H](CCN)C(=O)N[C@@H](CCN)C(=O)N[C@@H](CCN)C(=O)N[C@@H](CS)C(=O)N[C@@H](Cc1ccccc1)C(=O)N[C@@H](CS)C(=O)N[C@@H](Cc1c[nH]c2ccccc12)C(=O)N[C@@H](CCN)C(=O)N[C@@H](Cc1c[nH]c2ccccc12)C(=O)N[C@@H](CS)C(N)=O` [GMA4C_V5A, FG(Dab)C(Dab)GF(Dab)(Dab)(Dab)CFCW(Dab)WC-NH2] (H-FG[Dab]C[Dab]GF[Dab][Dab][Dab]CFCW[Dab]WC-NH2; N-terminus assumed), for which the “MIC, 100%” value with C. krusei stood at 8 µg/mL (≈ 4.08 µM); against P. variotii it was 4 µg/mL (≈ 2.04 µM).

The record behind these values is patent US20240383955A1, “MODIFIED ANTIMICROBIAL PEPTIDES” (priority 2021, published 2024).
